Assays:
Assay type in all cases: biochemical
r-tissue kallikrein = r-tissue kallikrein (Homo sapiens, UniProt P06870); test: Ki determination, r-tissue kallikrein (DL-Val-Leu-Arg-pNA); conditions: 50 mM Tris-HCl, pH 7.8, 200 mM NaCl, 0.05% BSA; read-out: Experimentally Determined Ki, Tissue Kallikrein
Method in brief: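 Enzyme preincubated with test compound 15 min at 37° C in 50 mM Tris-HCl pH 7.8, 200 mM NaCl, 0.05% BSA; residual activity read at 405 nm after adding H-D-Prolyl-Phe-Arg-pNA (plasma) or DL-Val-Leu-Arg-pNA (tissue). Ki from tight-binding equation (enzyme active-site titrated) corrected for substrate, or competitive-inhibitor equation when Ki >>[E]o.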

Human plasma factor Xa = molecular target: T1, Human plasma factor Xa (Homo sapiens, UniProt P00742); test: Ki determination, human plasma factor Xa (N-Benzoyl-Ile-Glu-Gly-Arg-pNA); conditions: 50 mM Tris-HCl, pH 7.8, 200 mM NaCl, 0.05% BSA; read-out: Experimentally Determined Ki, Factor Xa
T1 construct: from tissue; host or cells: human plasma
T1 sequence (P00742 235-488 limits assumed): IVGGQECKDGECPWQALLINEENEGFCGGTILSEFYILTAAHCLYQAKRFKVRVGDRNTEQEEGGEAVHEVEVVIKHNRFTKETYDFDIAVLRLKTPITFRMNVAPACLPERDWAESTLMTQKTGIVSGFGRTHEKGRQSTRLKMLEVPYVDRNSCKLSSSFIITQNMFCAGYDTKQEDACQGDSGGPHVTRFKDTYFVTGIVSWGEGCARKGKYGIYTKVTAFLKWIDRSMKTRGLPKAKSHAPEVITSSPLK
T1 sequence (P00742 41-179 partner limits assumed): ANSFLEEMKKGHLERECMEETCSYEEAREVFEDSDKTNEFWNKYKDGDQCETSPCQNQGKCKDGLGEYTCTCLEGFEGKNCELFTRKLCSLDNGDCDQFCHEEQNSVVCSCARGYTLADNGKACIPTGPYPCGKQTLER
Method in brief: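 Enzyme preincubated with compound 15 min at 37° C in 50 mM Tris-HCl pH 7.8, 200 mM NaCl, 0.05% BSA, then N-Benzoyl-Ile-Glu-Gly-Arg-pNA added and p-nitroaniline read at 405 nm. Ki from tight-binding equation with active-site-titrated enzyme, corrected for substrate, or from competitive-inhibitor equations when Ki >> [E]o.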

[1] = molecular target: T2, Bovine Pancreatic Chymotrypsin (Bos taurus, UniProt P00766); test: Ki determination, bovine pancreatic chymotrypsin (N-Suc-Ala-Ala-Pro-Phe-pNA); conditions: 100 mM Tris-HCl, pH 7.8, 10 mM CaCl2; read-out: Experimentally Determined Ki, Chymotrypsin
T2 construct: from tissue; host or cells: bovine pancreas
Method in brief: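 Enzyme was preincubated with test compound for 15 min at 37° C before N-Suc-Ala-Ala-Pro-Phe-pNA was added, in 100 mM Tris-HCl, pH 7.8, 10 mM CaCl2. p-Nitroaniline release was read at 405 nm. Ki came from the tight-binding equation with [E]o set by active-site titration and corrected for substrate, or from competitive-inhibitor equations when Ki >>[E]o.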

Human plasma thrombin = molecular target: T3, Human plasma thrombin (Homo sapiens, UniProt P00734); test: Ki determination, human plasma thrombin (H-D-Phe-Pip-Arg-pNA); conditions: 50 mM Tris-HCl, pH 8.3, 100 mM NaCl, 1% BSA; read-out: Experimentally Determined Ki, Thrombin
T3 construct: from tissue; host or cells: human plasma
Method in brief: (§1)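 Plasma thrombin preincubated with compound 15 min at 37 °C in 50 mM Tris-HCl pH 8.3, 100 mM NaCl, 1% BSA, then H-D-Phe-Pip-Arg-pNA added; p-nitroaniline release read at 405 nm. Ki from tight-binding equation (active-site-titrated enzyme) corrected for substrate, or competitive-inhibitor equation when Ki >> [E]o.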

[2] = molecular target: T4, Human Neutrophil elastase (Homo sapiens, UniProt P08246); test: Ki determination, human neutrophil elastase (pyroGlu-Pro-Val-pNA); conditions: 100 mM Tris-HCl, pH 8.3, 0.96 M NaCl, 1% BSA; read-out: Experimentally Determined Ki, Elastase
T4 construct: from tissue; host or cells: human neutrophils
T4 sequence (P08246 30-267): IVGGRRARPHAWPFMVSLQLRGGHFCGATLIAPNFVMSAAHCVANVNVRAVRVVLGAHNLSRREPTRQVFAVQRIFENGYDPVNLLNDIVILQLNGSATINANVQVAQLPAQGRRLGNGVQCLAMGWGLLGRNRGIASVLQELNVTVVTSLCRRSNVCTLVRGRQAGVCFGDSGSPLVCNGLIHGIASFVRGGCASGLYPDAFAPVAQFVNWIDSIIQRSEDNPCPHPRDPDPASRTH
Method in brief: as §1, with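 “Enzyme” for “Plasma thrombin”, “37° C.” for “37 °C”, “100” for “50”, “0.96 M” for “100 mM”, “pyroGlu-Pro-Val-pNA” for “H-D-Phe-Pip-Arg-pNA”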

[3] = molecular target: T5, Bovine pancreatic Trypsin (Bos taurus, UniProt P00760); test: Ki determination, bovine pancreatic trypsin (N-a-Benzoyl-L-Arg-pNA); conditions: 50 mM Tris-HCl, pH 8.2, 20 mM CaCl2; read-out: Experimentally Determined Ki, Trypsin
T5 construct: from tissue; host or cells: bovine pancreas
T5 sequence (P00760 24-246): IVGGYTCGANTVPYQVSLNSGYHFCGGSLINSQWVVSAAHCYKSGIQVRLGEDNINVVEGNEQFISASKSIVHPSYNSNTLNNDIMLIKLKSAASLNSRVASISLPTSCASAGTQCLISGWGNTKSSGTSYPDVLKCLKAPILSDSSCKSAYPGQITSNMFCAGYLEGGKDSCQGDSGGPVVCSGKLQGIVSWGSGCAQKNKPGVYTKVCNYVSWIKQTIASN
Method in brief: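 TPCK-treated bovine trypsin was preincubated with compound for 15 min at 37° C in 50 mM Tris-HCl pH 8.2, 20 mM CaCl2, then N-a-Benzoyl-L-Arg-pNA was added and p-nitroaniline read at 405 nm. Ki came from the tight-binding equation, with [E]o from active-site titration and a substrate correction, or from competitive-inhibitor equations when Ki >>[E]o.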

Human plasma plasmin = molecular target: T6, Human plasma plasmin (Homo sapiens, UniProt P00747); test: Ki determination, human plasma plasmin (Tosyl-Gly-Pro-Lys-pNA); conditions: 100 mM Tris-HCl, pH 7.4, 100 mM NaCl, 0.05% Triton X-100; read-out: Experimentally Determined Ki, Plasmin
T6 construct: from tissue; host or cells: human plasma
T6 sequence (P00747 581-810 limits assumed): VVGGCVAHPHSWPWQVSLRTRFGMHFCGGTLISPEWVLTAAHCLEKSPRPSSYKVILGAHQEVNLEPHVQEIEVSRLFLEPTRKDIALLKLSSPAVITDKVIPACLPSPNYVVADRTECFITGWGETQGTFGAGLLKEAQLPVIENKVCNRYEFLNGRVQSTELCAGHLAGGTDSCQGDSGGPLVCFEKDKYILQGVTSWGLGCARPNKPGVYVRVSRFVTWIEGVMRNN
T6 sequence (P00747 97-580 partner limits assumed): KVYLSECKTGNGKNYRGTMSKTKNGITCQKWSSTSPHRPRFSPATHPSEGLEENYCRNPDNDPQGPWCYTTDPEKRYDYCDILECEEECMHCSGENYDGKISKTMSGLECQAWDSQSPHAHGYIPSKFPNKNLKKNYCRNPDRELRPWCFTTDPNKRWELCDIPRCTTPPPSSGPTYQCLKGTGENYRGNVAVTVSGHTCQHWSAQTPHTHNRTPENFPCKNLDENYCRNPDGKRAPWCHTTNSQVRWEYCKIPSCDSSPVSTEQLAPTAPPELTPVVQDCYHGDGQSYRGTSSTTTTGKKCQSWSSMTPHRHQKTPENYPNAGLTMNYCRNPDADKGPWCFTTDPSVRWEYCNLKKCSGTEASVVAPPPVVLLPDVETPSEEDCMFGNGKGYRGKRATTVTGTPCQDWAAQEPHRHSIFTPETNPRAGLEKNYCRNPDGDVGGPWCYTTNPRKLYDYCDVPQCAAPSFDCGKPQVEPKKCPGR
Method in brief: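 Enzyme preincubated with inhibitor 15 min at 37° C. in 100 mM Tris-HCl pH 7.4, 100 mM NaCl, 0.05% Triton X-100, then Tosyl-Gly-Pro-Lys-pNA added; p-nitroaniline release followed at 405 nm. Ki from tight-binding equation (active-site-titrated [E]o), corrected for substrate, or competitive-inhibitor equation when Ki >>[E]o.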

Chain of r-tissue kallikrein (P06870 25-262): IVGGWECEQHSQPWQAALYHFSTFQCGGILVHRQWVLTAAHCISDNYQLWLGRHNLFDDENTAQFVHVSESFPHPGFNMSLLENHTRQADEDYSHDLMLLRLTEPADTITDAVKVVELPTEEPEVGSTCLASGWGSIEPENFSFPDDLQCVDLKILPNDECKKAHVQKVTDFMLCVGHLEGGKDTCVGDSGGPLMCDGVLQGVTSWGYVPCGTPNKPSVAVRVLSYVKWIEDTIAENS

Question: How did the Ki (r-tissue kallikrein) turn out when `N=C(N)c1ccc(C(=O)NCc2ccc(OCC3(COc4ccc(CNC(=O)c5ccc(C(=N)N)cc5)cc4)CCC3)cc2)cc1` [Example 93, 1,1-Bis-{4-[(4-carbamimidoyl-benzoyl-amino)-methyl]-phenoxy-methyl}-cyclobutane] was run?
Answer: 14 µM

Question: And the Ki (Human plasma factor Xa)?
Answer: 15 µM

Question: What about the Ki [1] of the same molecule?
Answer: > 100 µM

Question: And the Ki (Human plasma thrombin)?
Answer: > 100 µM

Question: And the Ki [2]?
Answer: > 100 µM

Question: And the Ki [3]?
Answer: 1.5 µM

Question: And the Ki (Human plasma plasmin)?
Answer: 6.7 µM

Question: What does the source list for `N=C(N)c1ccc2cc(C(=O)NCc3ccc(OCCOc4ccc(CNC(=O)c5ccc6cc(C(=N)N)ccc6c5)cc4)cc3)ccc2c1` [Example 100, 1,2-Bis-{4-[(6-carbamimidoylnaphthalene-2-carbonylamino)-methyl]-phenoxy}-ethane]?
Answer: Ki (r-tissue kallikrein): > 100 µM; Ki (Human plasma factor Xa): > 100 µM; Ki [1]: 18 µM; Ki (Human plasma thrombin): > 100 µM; Ki [2]: > 100 µM; Ki [3]: 0.15 µM; Ki (Human plasma plasmin): 0.74 µM

Question: Which Ki (r-tissue kallikrein) does the source give for `N=C(N)c1ccc2[nH]c(CC(=O)NCc3ccc(OCCCOc4ccc(CNC(=O)Cc5nc6cc(C(=N)N)ccc6[nH]5)cc4)cc3)nc2c1` [Example 107, 2-(5-Carbamimidoyl-1H-benzoimidazol-2-yl)-N-{4,-[3-(4-{2-(5-carbamimidoyl-1H-benzoimidazol-2-yl)acetylaminol-methyl}-phenoxy)-propoxy]-benzyl}-acetamide] here?
Answer: > 100 µM

Question: What about the Ki (Human plasma factor Xa) of the same molecule?
Answer: 27 µM

Question: What about the Ki [1] of the same molecule?
Answer: 26 µM

Question: And the Ki (Human plasma thrombin)?
Answer: > 100 µM

Question: What about the Ki [2] of the same molecule?
Answer: > 100 µM

Question: And the Ki [3]?
Answer: 4.8 µM

Question: And the Ki (Human plasma plasmin)?
Answer: 2.1 µM

Question: What does the source list for `N=C(N)c1ccc2[nH]c(CC(=O)NCc3ccc(OCCCCCOc4ccc(CNC(=O)Cc5nc6cc(C(=N)N)ccc6[nH]5)cc4)cc3)nc2c1` [Example 108]?
Answer: Ki (r-tissue kallikrein): > 100 µM; Ki (Human plasma factor Xa): 19 µM; Ki [1]: > 100 µM; Ki (Human plasma thrombin): > 100 µM; Ki [2]: > 100 µM; Ki [3]: 3.6 µM; Ki (Human plasma plasmin): 1.4 µM

Question: Which Ki (r-tissue kallikrein) does the source give for `N=C(N)c1ccc2[nH]c(CC(=O)NCc3ccc(OCCCCOc4ccc(CNC(=O)Cc5nc6cc(C(=N)N)ccc6[nH]5)cc4)cc3)nc2c1` [Example 109] here?
Answer: > 100 µM

Question: And the Ki (Human plasma factor Xa)?
Answer: 40 µM

Question: And the Ki [1]?
Answer: 14.7 µM

Question: What about the Ki (Human plasma thrombin) of the same molecule?
Answer: > 100 µM

Question: What about the Ki [2] of the same molecule?
Answer: > 100 µM

Question: And the Ki [3]?
Answer: 11.4 µM

Question: And the Ki (Human plasma plasmin)?
Answer: 0.11 µM

Question: `N=C(N)c1ccc2sc(C(=O)NCc3ccc(OCCCOc4ccc(CNC(=O)c5cc6cc(C(=N)N)ccc6s5)cc4)cc3)cc2c1` [Example 117, 1,3-Bis-{4-[(5-carbamidoyl-2-benzthiophenyl-carbamido)-methyl]-phenoxy}-propane] was tested. Which Ki (r-tissue kallikrein) did it give?
Answer: > 100 µM

Question: And the Ki (Human plasma factor Xa)?
Answer: 59 µM

Question: And the Ki [1]?
Answer: 40 µM

Question: What about the Ki (Human plasma thrombin) of the same molecule?
Answer: > 100 µM

Question: What about the Ki [2] of the same molecule?
Answer: > 100 µM

Question: And the Ki [3]?
Answer: 13 µM

Question: What about the Ki (Human plasma plasmin) of the same molecule?
Answer: 50 µM

— patent US6221914A, “Sulfonamide bridging compounds that inhibit tryptase activity” (Array Biopharma Inc., priority 1998, dated 2001)
